≈ marks a conversion by molar mass, not a printed value. Read-outs that look alike come from different tables or passages of the source.
Columns and labels:
[1] = system: E. coli ATCC 25922; assay: Antibacterial activity, MIC by broth microdilution (CLSI); assay type: cell-based; conditions: Escherichia coli, ATCC25922; E. coli ATCC 25922, 35° C., 18 to 24 hours; read-out: MIC(E. coli)
Experimental: (§1) The in vitro minimum inhibitory concentration (MIC) was determined in accordance with the CLSI guidelines, and was measured using the broth microdilution method.
(§2) The experimental process is briefly described as follows: The test compound was dissolved in DMSO to prepare a […] stock solution, which was then prepared into 11 twice-diluted 100× high-concentration working solutions (the final concentration of the system was 64 μg/mL-0.06 μg/mL) using DMSO. The strains (K. pneumoniae ATCC13883 and E. coli ATCC 25922) frozen in −80° C. glycerol were inoculated into solid agar medium, placed in an incubator at 35° C. for 18-24 hours of incubation. After the preparation of strains was completed, an appropriate amount of solid plate culture was collected, resuspended in physiological saline, and mixed well. The bacterial suspension was adjusted to a suitable turbidity using a turbidity meter, containing approximately 1×10^8 cfu/mL bacteria. Then the bacterial suspension with the adjusted turbidity was diluted to a bacterial concentration of 5×10^5 cfu/ml using the culture medium for measurement, to complete the preparation of the inoculum solution. 198 μL of the inoculum solution was inoculated into a 96-well plate, and then added with 2 μL of a 100× high-concentration working solution of the compound. Then the 96-well plate was placed at 35° C. for 18 to 24 hours of incubation.

[2] = system: K. pneumoniae ATCC13883; assay: as above; assay type: cell-based; conditions: Klebsiella pneumoniae; K. pneumoniae ATCC13883, 35° C., 18 to 24 hours; read-out: MIC(K. Pneumoniae)
Experimental: as §1, §2

[3] = target: recombinant Pseudomonas aeruginosa LpxC (Pseudomonas aeruginosa (strain ATCC 15692 / DSM 22644 / CIP 104116 / JCM 14847 / LMG 12228 / 1C / PRS 101 / PAO1), UniProt P47205); assay: Inhibition of LpxC enzymatic activity (fluorescamine assay); assay type: biochemical
Experimental: The degree of inhibition of the enzymatic activity of recombinant Pseudomonas aeruginosa LpxC by the compounds of the present disclosure under in vitro conditions was determined using the following method.
The experimental procedure is briefly described as follows: The test compound was first dissolved in DMSO to prepare a 10 mM stock solution. The reaction was carried out in a 96-well microplate. First, 20 μL of recombinant Pseudomonas aeruginosa LpxC (purchased from Signalway Antibody, product number AP74647-2) was added to each well, with a final concentration of 5 nM. 5 μL of the compound to be tested was then added, and the compound was diluted 4 times to 8 concentration points with a concentration range of 0.61-10,000 nM. 5 μL of LpxC substrate UDP-3-O—(R-3-hydroxydecanoyl)-GlcNAc (purchased from Biosynth Carbosynth, product number: mu75071) was added, with a final concentration of the substrate of 10 μM. The plate was incubated at 25° C. for 120 minutes. Then 20 μL of 2.0 mg/mL fluorescamine (purchased from sigmaaldrich, product number: F9015, solvent: 1:1 dimethylformamide/acetonitrile) was added to the reaction system, and mixed well for 10 minutes of reaction. Finally, 50 μL of 200 mM sodium phosphate buffer (pH 8.0) was added to terminate the reaction. Reading was carried out using a microplate reader (BMG), and the excitation and emission wavelengths were 390 and 495 nm respectively. By comparing with the fluorescence intensity ratio of the control group ([…]), the percentage inhibition rate of the compound at each concentration was calculated.

[4] = recombinant P. aeruginosa LpxC 5 nM, substrate 10 μM, 25° C., 120 minutes, read-out: IC50

| Structure (SMILES) | MIC [1] [µg/mL] | MIC [2] [µg/mL] | IC50 [3, 4] [nM] | IC50 [3] [nM] |
| --- | --- | --- | --- | --- |
| C[C@H](O)c1nccn1Cc1cc(-c2ccc(C#Cc3ccc(CN4CCOCC4)cc3)cc2)on1 [Example 2, (S)-1-(1-((5-(4-((4-(morpholinomethyl)phenyl)ethynyl)phenyl)isoxazol-3-yl)methyl)-1H-imidazol-2-yl)ethan-1-ol] | 0.5 (≈ 1.07 µM) | 1 (≈ 2.13 µM) | 3.07 | – |
| C[C@H](O)c1nccn1Cc1cc(-c2ccc(C#Cc3ccc(CN4CCOCC4)cc3)cc2)no1 [Example 3, (S)-1-(1-((3-(4-((4-(morpholinomethyl)phenyl)ethynyl)phenyl)isoxazol-5-yl)methyl)-1H-imidazol-2-yl)ethan-1-ol] | 1 (≈ 2.13 µM) | 2 (≈ 4.27 µM) | 24.9 | – |
| C[C@H](O)c1nccn1Cc1cc(-c2ccc(C#Cc3ccc(C(=O)N4CCOCC4)cc3)cc2)on1 [Example 6, (S)-(4-((4-(3-((2-(1-hydroxyethyl)-1H-imidazol-1-yl)methyl)isoxazol-5-yl)phenyl)ethynyl)phenyl)(morpholino)methanone] | 2 (≈ 4.14 µM) | 4 (≈ 8.29 µM) | 12.9 | – |
| C[C@H](O)c1nccn1Cc1cc(-c2ccc(C#Cc3ccccc3)cc2)on1 [Example 7, (S)-1-(1-((5-(4-(phenylethynyl)phenyl)isoxazol-3-yl)methyl)-1H-imidazol-2-yl)ethan-1-ol] | 0.25 (≈ 0.677 µM) | 0.5 (≈ 1.35 µM) | 73.1 | – |
| C[C@H](O)c1nccn1Cc1cc(-c2ccc(C#Cc3cccnc3)cc2)on1 [Example 9, (S)-1-(1-((5-(4-(pyridin-3-ylethynyl)phenyl)isoxazol-3-yl)methyl)-1H-imidazol-2-yl)ethan-1-ol] | 1 (≈ 2.7 µM) | 2 (≈ 5.4 µM) | 27.1 | – |
| C[C@H](O)c1nccn1Cc1cc(-c2ccc(C#Cc3ccncc3)cc2)on1 [Example 10, (S)-1-(1-((5-(4-(pyridin-4-ylethynyl)phenyl)isoxazol-3-yl)methyl)-1H-imidazol-2-yl)ethan-1-ol] | 0.5 (≈ 1.35 µM) | 1 (≈ 2.7 µM) | 30.4 | – |
| C[C@H](O)c1nccn1Cc1cc(-c2ccc(C#Cc3ccc(CN4CCC(O)CC4)cc3)cc2)on1 [Example 18, (S)-1-(4-((4-(3-((2-(1-hydroxyethyl)-1H-imidazol-1-yl)methyl)isoxazol-5-yl)phenyl)ethynyl)benzyl)piperidin-4-ol] | 2 (≈ 4.14 µM) | 4 (≈ 8.29 µM) | 9.84 | – |
| C[C@H](O)c1nccn1Cc1cc(-c2ccc(C#Cc3ccc(C(N)=O)cc3)cc2)on1 [Example 23, (S)-4-((4-(3-((2-(1-hydroxyethyl)-1H-imidazol-1-yl)methyl)isoxazol-5-yl)phenyl)ethynyl)benzamide] | 0.25 (≈ 0.606 µM) | 1 (≈ 2.42 µM) | 7.75 | – |
| C[C@H](O)c1nccn1Cc1cc(-c2ccc(C#Cc3ccc(CN4CCOC(C(=O)O)C4)cc3)cc2)on1 (stereo partly drawn) [Example 47, 4-(4-((4-(3-((2-((S)-1-hydroxyethyl)-1H-imidazol-1-yl)methyl)isoxazol-5-yl)phenyl)ethynyl)benzyl)morpholin-2-carboxylic acid] | 8 (≈ 15.6 µM) | – | – | 11.1 |
| C[C@H](O)c1nccn1Cc1cc(-c2ccc(C#Cc3ccc(C(=O)N4CCC(O)CC4)cc3)cc2)on1 [Example 67, (S)-(4-((4-(3-((2-(1-hydroxy-ethyl)-1H-imidazol-1-yl)methyl)isoxazol-5-yl)phenyl)ethynyl)phenyl)(4-hydroxypiperidin-1-yl)methanone] | 2 (≈ 4.03 µM) | – | 10.4 | – |
| C[C@H](O)c1nccn1Cc1cc(-c2ccc(C#Cc3ccc(C(=O)N4CCC(C(=O)O)CC4)cc3)cc2)on1 [Example 69, (S)-1-(4-((4-(3-((2-(1-hydroxyethyl)-1H-imidazol-1-yl)methyl)isoxazol-5-yl)phenyl)ethynyl)benzoyl)piperidin-4-carboxylic acid] | 8 (≈ 15.3 µM) | – | 10.4 | – |
| CCN(CC)CCNC(=O)c1ccc(C#Cc2ccc(-c3cc(Cn4ccnc4[C@H](C)O)no3)cc2)cc1 [Example 70, (S)-N-(2-(diethylamino)ethyl)-4-((4-(3-((2-(1-hydroxyethyl)-1H-imidazol-1-yl)methyl)isoxazol-5-yl)phenyl)ethynyl) benzamide] | 8 (≈ 15.6 µM) | – | 12.9 | – |
| C[C@H](O)c1nccn1Cc1cc(-c2ccc(C#Cc3ccc(C(=O)NCCN(C)C)cc3)cc2)on1 [Example 71, (S)-N-(2-(dimethylamino)ethyl)-4-((4-(3-((2-(1-hydroxyethyl)-1H-imidazol-1-yl)methyl)isoxazol-5-yl)phenyl)ethynyl) benzamide] | 8 (≈ 16.5 µM) | – | 24.2 | – |
| C[C@H](O)c1nccn1Cc1cc(-c2ccc(C#Cc3ccc(C(=O)NCC(C)(C)O)cc3)cc2)on1 [Example 72, (S)-N-(2-hydroxy-2-methyl-propyl)-4-((4-(3-((2-(1-hydroxyethyl)-1H-imidazol-1-yl)methyl)isoxazol-5-yl)phenyl)ethynyl) benzamide] | 8 (≈ 16.5 µM) | – | 26.6 | – |
| C[C@H](O)c1nccn1Cc1cc(-c2ccc(C#Cc3ccc(C(=O)NCCC(=O)O)cc3)cc2)on1 [Example 73, (S)-3-(4-((4-(3-((2-(1-hydroxyethyl)-1H-imidazol-1-yl)methyl)isoxazol-5-yl)phenyl)ethynyl)benzamido)propanoic acid] | 8 (≈ 16.5 µM) | – | 33.1 | – |
| C[C@H](O)c1nccn1Cc1cc(-c2ccc(C#Cc3ccc(OCC4CCN(C)CC4)cc3)cc2)on1 [Example 76, (S)-1-(1-((5-(4-((4-((1-methylpiperidin-4-yl)methoxy)phenyl)ethynyl)phenyl)isoxazol-3-yl)methyl)-1H-imidazol-2-yl) ethan-1-ol] | 8 (≈ 16.1 µM) | – | 12.9 | – |
| C[C@H](O)c1nccn1Cc1cc(-c2ccc(C#Cc3ccc(CN4CCOC(CC(=O)O)C4)cc3)cc2)on1 (stereo partly drawn) [Example 93, 2-(4-(4-((4-(3-((2-((S)-1-hy-droxyethyl)-1H-imidazol-1-yl)methyl)isoxazol-5-yl)phenyl)ethynyl)benzyl)morpholin-2-yl) acetic acid] | 8 (≈ 15.2 µM) | – | 16.2 | – |
| C[C@H](O)c1nccn1Cc1cc(-c2ccc(C#Cc3ccc(CN4CC(C(=O)O)C4)cc3)cc2)on1 [Example 95, (S)-1-(4-((4-(3-((2-(1-hydroxyethyl)-1H-imidazol-1-yl)methyl)isoxazol-5-yl)phenyl)ethynyl)benzyl)azetidin-3-carboxylic acid] | 8 (≈ 16.6 µM) | – | 19.9 | – |
| C[C@H](O)c1nccn1Cc1cc(-c2ccc(C#Cc3ccc(CN4CCNCC4)cc3)cc2)on1 [Example 96, (S)-1-(1-((5-(4-((4-(piperazin-1-ylmethyl)phenyl)ethynyl)phenyl)isoxazol-3-yl)methyl)-1H-imidazol-2-yl)ethan-1-ol] | 4 (≈ 8.55 µM) | – | 15.9 | – |
| C[C@H](O)c1nccn1Cc1cc(-c2ccc(C#Cc3ccc(CNCC(=O)O)cc3)cc2)on1 [Example 99, (S)-(4-((4-(3-((2-(1-hydroxy-ethyl)-1H-imidazol-1-yl)methyl)isoxazol-5-yl)phenyl)ethynyl)benzyl)glycinate] | 4 (≈ 8.76 µM) | – | – | 19.4 |
| C[C@H](O)c1nccn1Cc1cc(-c2ccc(C#Cc3cccc(C(=O)O)c3)cc2)on1 [Example 107, (S)-3-((4-(3-((2-(1-hydroxy-ethyl)-1H-imidazol-1-yl)methyl)isoxazol-5-yl)phenyl)ethynyl) benzoic acid] | 8 (≈ 19.4 µM) | – | 16.3 | – |
| C[C@H](O)c1nccn1Cc1cc(-c2ccc(C#Cc3cccc(CCC(=O)O)c3)cc2)on1 [Example 109, (S)-3-(3-((4-(3-((2-(1-hydroxyethyl)-1H-imidazol-1-yl)methyl)isoxazol-5-yl)phenyl)ethynyl)phenyl)propanoic acid] | 4 (≈ 9.06 µM) | – | 23.4 | – |
| C[C@H](O)c1nccn1Cc1cc(-c2ccc(C#Cc3cccc(OCC(=O)O)c3)cc2)on1 [Example 110, (S)-2-(3-((4-(3-((2-(1-hydroxyethyl)-1H-imidazol-1-yl)methyl)isoxazol-5-yl)phenyl)ethynyl)phenoxy)acetic acid] | 8 (≈ 18 µM) | – | 11.2 | – |
